Reference: article PMC11198849, “Expression and purification of human neutrophil proteinase 3 from insect cells and characterization of ligand binding” (PLOS ONE, 2024)
Several values for one entry are separate records, joined by “and”; a condition that tells them apart may be missing. Identical values can stand only once. Like-named read-outs stand apart in the source and are kept apart here.

Assays:
[1] = molecular target: α1-antitrypsin (Homo sapiens) (UniProt P01009); conditions: cited from earlier work
rPR3 [2] = molecular target: T1, rPR3 (Homo sapiens, UniProt P24158); assay: Fluorescence-based enzymatic activity assay with rPR3 (FRET peptide Abz-VADnVADYQ-EDDnp); format: biochemical
T1 construct: TEV cleavage site (C); 6x His-tag (C); made in house; host or cells: Spodoptera frugiperda Sf9 (baculovirus), secreted
T1 sequence (P24158 28-248 limits assumed): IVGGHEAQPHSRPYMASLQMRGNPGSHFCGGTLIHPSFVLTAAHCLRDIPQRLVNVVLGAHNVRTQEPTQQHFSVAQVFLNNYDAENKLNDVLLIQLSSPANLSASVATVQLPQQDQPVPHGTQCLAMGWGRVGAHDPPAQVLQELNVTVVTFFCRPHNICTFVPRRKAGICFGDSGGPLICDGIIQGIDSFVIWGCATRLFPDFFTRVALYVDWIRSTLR
Procedure: (§1) The reaction was started by adding the FRET peptide (Abz-VADnVADYQ-EDDnp) at a final concentration of 5 μM. The fluorescent signal (excitation filter 320, emission filter 420) was read every 30 s for 30 min at 30°C with a fluorescent plate reader (Tecan Spark) and the enzymatic activity was measured from the initial linear portion of the slope (fluorescent signal/min) of the time-course curve of reaction progress.
(§2) Data were fitted using nonlinear regression analysis (GraphPad Prism v.9) to determine the IC50 values.

rPR3 [3] = molecular target: T1, rPR3; assay: SPR binding assay on biotinylated rPR3; conditions: for SPR binding behaviour towards rPR3 (in words): sensorgrams Fig 5
hPR3 = molecular target: T2, hPR3 (Homo sapiens, UniProt P24158); assay: Fluorescence-based enzymatic activity assay with hPR3 (FRET peptide Abz-VADnVADYQ-EDDnp); format: biochemical
T2 construct: Enzymes purified from human neutrophiles (hPR3 and hNE); purchased Athens Research and Technology; host or cells: human neutrophils
T2 sequence (P24158 28-248 limits assumed): T1 sequence (P24158 28-248 limits assumed)
Procedure: as §1, §2

hNE = molecular target: T3, hNE (Homo sapiens, UniProt P08246); assay: Fluorescence-based enzymatic activity assay with hNE (MeOSuc-AAPV-AMC substrate); format: biochemical; conditions: for %Relative activity of enzyme: hNE, Rep1-Rep3
T3 construct: Enzymes purified from human neutrophiles (hPR3 and hNE); purchased Athens Research and Technology; host or cells: human neutrophils
T3 sequence (P08246 30-247 limits assumed): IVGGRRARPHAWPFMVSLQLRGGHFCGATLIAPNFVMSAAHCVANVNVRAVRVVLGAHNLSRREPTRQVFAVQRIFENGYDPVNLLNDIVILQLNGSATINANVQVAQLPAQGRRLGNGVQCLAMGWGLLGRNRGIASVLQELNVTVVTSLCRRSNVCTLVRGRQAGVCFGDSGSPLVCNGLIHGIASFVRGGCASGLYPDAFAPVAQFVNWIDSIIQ
Procedure: The reaction was started by adding the fluorogenic substrate (MeOSuc-AAPV-AMC) at a final concentration of 5 μM. The fluorescent signal (excitation filter 360, emission filter 460) was read as described above for PR3.
as §2

PR3 = conditions: cited from earlier work
[4] = IC50 replicates Rep1-Rep3, read-out: rPR3 IC50
[5] = mean ± SD (n = 3), read-out: IC50 rPR3
[6] = affinity data, single replicates Rep1-Rep3, read-out: Steady state KD
[7] = steady state, average and SD of triplicates, read-out: Steady state KD
[8] = IC50 replicates Rep1-Rep3, read-out: hPR3 IC50
[9] = mean ± SD (n = 3), read-out: IC50 hPR3

Sequence of α1-antitrypsin (Homo sapiens) (P01009 25-418): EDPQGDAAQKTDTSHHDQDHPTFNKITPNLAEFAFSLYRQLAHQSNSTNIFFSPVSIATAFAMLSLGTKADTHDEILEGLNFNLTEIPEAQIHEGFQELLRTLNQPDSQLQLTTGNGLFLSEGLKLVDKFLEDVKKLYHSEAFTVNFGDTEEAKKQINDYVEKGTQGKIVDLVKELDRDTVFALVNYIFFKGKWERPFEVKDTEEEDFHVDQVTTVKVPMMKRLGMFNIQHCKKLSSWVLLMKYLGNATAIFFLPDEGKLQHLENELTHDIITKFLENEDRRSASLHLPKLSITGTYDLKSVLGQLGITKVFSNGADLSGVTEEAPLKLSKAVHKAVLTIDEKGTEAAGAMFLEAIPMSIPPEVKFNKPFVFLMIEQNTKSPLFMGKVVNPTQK

Row | Compound | IC50 (rPR3 [2]; [4]) | IC50 (rPR3 [2]; [5]) | IC50 (hPR3; [8]) | IC50 (hPR3; [9]) | SPR binding behaviour towards rPR3 (in words) (rPR3 [3]) | Kd (rPR3 [3]; [6]) | Kd (rPR3 [3]; [7]) | other results
1 | Proteinase 3 (from UniProt P24158) | – | – | – | – | – | – | – | Ki [1]: 38 nM
2 | Cc1c(-c2ccnn2C)cc(C(=O)NCc2ccc(S(C)(=O)=O)cn2)c(=O)n1-c1cccc(C(F)(F)F)c1 [Alvelestat] | – | – | – | – | weak rPR3 binder with fast association and dissociation rates | 1.95e-05 M and 1.26e-05 M and 8.36e-06 M | 1.35e-05 ± 5.6e-06 M | IC50 (hNE; IC50 replicates Rep1-Rep3): 10.7 nM and 12.1 nM and 11.6 nM; %Relative activity of enzyme (hNE; inhibitor 1.95 nM): 78.8834% and 84.934% and 85.1448%; %Relative activity of enzyme (hNE; inhibitor 3.9 nM): 78.3028% and 76.8727%; %Relative activity of enzyme (hNE; inhibitor 7.8 nM): 61.4733% and 58.7939% and 60.1294%; %Relative activity of enzyme (hNE; inhibitor 15.6 nM): 40.7947% and 40.9606% and 39.7611%; %Relative activity of enzyme (hNE; inhibitor 31.25 nM): 27.1224% and 29.7155% and 27.7611%; %Relative activity of enzyme (hNE; inhibitor 62.5 nM): 15.0503% and 20.2323% and 16.5108%; %Relative activity of enzyme (hNE; inhibitor 125 nM): 9.7027% and 8.522% and 9.4691%
3 | CC(C)(C)C(=O)Oc1ccc(S(=O)(=O)Nc2ccccc2C(=O)NCC(=O)O)cc1 [Sivelestat] | 35.8 nM and 29.5 nM and 30.1 nM | 32 ± 4 nM | 33.6 nM and 34.1 nM and 30.4 nM | 33 ± 2 nM | hardly dissociated | – | – | –

Second part, led by results:

Row | IC50 (rPR3 [2]; [4]) | IC50 (rPR3 [2]; [5]) | IC50 (hPR3; [8]) | IC50 (hPR3; [9]) | SPR binding behaviour towards rPR3 (in words) (rPR3 [3]) | Compound | Kd (rPR3 [3]; [6]) | Kd (rPR3 [3]; [7]) | other results
4 | 67.7 nM and 55 nM and 53.6 nM | 59 ± 8 nM | 24.3 nM and 24.7 nM and 31.5 nM | 27 ± 4 nM | – | CC1=C(C#N)[C@@H](c2ccc(C#N)cc2S(C)(=O)=O)N(C)C(=O)N1c1cccc(C(F)(F)F)c1 [BAY-85-8501] | 2.6e-08 M and 4.4e-08 M and 1.6e-08 M | 3e-08 ± 1e-08 M | Ki (rPR3 [2]; Cheng-Prusoff equation, literature Km 27.4 μM, read-out: Ki derived from the IC50 value): 50 nM; Kd (rPR3 [3]; 1:1 binding kinetic model, average and SD of triplicates, read-out: KD): 1.4e-08 M; Kd (rPR3 [3]; affinity data, average of Rep1-Rep3, read-out: Steady state KD (M), Average): 2.87e-08 M; Kd (rPR3 [3]; average of Rep1-Rep3, read-out: KD (M), kinetics 1:1, Average): 1.37e-08 M; Kd (rPR3 [3]; single replicates Rep1-Rep3, read-out: KD (M), kinetics 1:1): 1.37e-08 M and 1.09e-08 M and 1.66e-08 M
5 | – | 14 ± 1 nM | – | 15 ± 1 nM | hardly dissociated | α1-antitrypsin: endogenous serine protease inhibitor, also denoted SERPIN; purchased from Sigma-Aldrich | – | – | first-order rate constant k2 (EI* to irreversible EI) (PR3): 0.04 s⁻¹; IC50 (rPR3 [2]; IC50 replicates Rep1-Rep3, listed as a1-antitrypsin, read-out: rPR3 IC50): 15.3 nM and 14.7 nM and 13.5 nM; IC50 (hPR3; IC50 replicates Rep1-Rep3, listed as a1-antitrypsin, read-out: hPR3 IC50): 15.8 nM and 15.5 nM and 14.6 nM
